# Source: US7977061B2, “Ex vivo method for determining potential GLP-2 receptor modulators” (NPS Pharmaceuticals Inc., priority 2005, dated 2011)
# Entries after “also recorded” stand apart in the source; their conditions may differ. Like-named read-outs stand apart in the source and are kept apart here.
# Target: T1, GLP-2R (Rattus norvegicus, UniProt Q9Z0W0)
# T1 construct: the described assay enables native GLP-2R characterization by the direct application of GLP-2 to intestinal tissue segments ex vivo; from tissue; host or cells: colon segments of male Sprague-Dawley rats
# T1 sequence (Q9Z0W0 1-550): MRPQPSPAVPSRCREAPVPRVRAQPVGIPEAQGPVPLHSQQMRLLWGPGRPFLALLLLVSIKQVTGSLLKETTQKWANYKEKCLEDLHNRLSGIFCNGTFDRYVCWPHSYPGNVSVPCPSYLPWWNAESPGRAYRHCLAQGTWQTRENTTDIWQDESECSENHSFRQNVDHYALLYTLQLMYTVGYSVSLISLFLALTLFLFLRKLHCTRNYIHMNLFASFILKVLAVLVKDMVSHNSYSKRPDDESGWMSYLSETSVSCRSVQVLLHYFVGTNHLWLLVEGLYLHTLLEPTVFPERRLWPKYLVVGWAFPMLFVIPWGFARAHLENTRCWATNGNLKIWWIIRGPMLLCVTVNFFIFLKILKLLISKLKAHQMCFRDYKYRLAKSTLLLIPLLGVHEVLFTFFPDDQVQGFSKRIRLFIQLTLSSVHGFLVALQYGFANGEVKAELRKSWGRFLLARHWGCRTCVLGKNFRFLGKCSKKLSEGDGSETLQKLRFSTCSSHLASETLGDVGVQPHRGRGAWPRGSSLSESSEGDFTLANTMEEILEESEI
# Experiment: Ex vivo organ bath assay of spontaneous contractility of rat colon segments
# Conditions: for effect on spontaneous colon contractility: substance alone; for IC50: rat colon segments
# Description: Segments of colon from male Sprague Dawley rats were suspended in organ bath chambers containing Krebs' solution and maintained at 37° C. with 95% O2 and 5% CO2. Basal tone, contractility rate and peak height were used to measure the properties of spontaneous and ligand-mediated colonic contractions. Segments were initially loaded to a tension of 2 g and allowed to equilibrate for 60 minutes. During this period, segments were repeatedly washed every 10 minutes. [gly2]GLP-2 (“Teduglutide”, a GLP-2 agonist) and GLP-2 analogues were subsequently incubated with each tissue segment for 5 to 10 minutes. The tissues were allowed to re-equilibrate with repeated washes following each experiment.
# Male Sprague-Dawley (SD) rats (Charles River Canada, Quebec), weighing 200-250 g, were used for these studies. The animals were housed on contact bedding and kept with free access to food (Purina Rodent Diet) and water in a facility with regulated temperature and humidity, under an alternate 12-hour light/dark cycle. Animals were acclimatized for 3˜5 days prior to harvesting of tissues.
# Rats were euthanized by decapitation. The entire intestine was quickly removed and placed in a Petri dish containing a Sylgard layer and 37° C. Krebs' solution bubbled with 95% O2 and 5% CO2. The Krebs' solution (pH 7.4) contained 118.1 mM NaCl, 25 mM NaHCO3, 4.7 mM KCl, 1.2 mM KH2PO4, 1.2 mM MgSO4.7H2O, 2.5 mM CaCl2.2H2O and 11 mM glucose. The colon was isolated, cleaned of superficial fat and mesentery and sectioned into eight 1-cm long segments. The lumen was cleaned by carefully flushing each segment with Krebs' solution using plastic transfer pipets. Segments were transferred to a separate Petri dish containing fresh Krebs' solution and suture threads were tied to both ends of each segment. Tissues were suspended longitudinally using surgical suture, one end attached to the transducer on the top and the other to the tissue holder at the bottom of 20 ml organ bath chambers containing Krebs' solution, maintained at 37° C. with 95% O2 and 5% CO2. Isometric tensions were continuously measured using calibrated force displacement transducers and data was collected and processed by the MP100WSW system with AcqKnowledge software
# Segments of colon were initially loaded to a tension of 2 g and allowed to equilibrate for a 60 min period. During this period, segments were washed with Krebs' solution at 10 minutes intervals. When the tissues obtained regular and stable contraction patterns, GLP-2 agonist response experiments were conducted by the addition of eight concentrations of compound into eight separate organ baths for 5-10 minutes. Routinely, one-hour washes were interspersed between repeat applications of compounds to allow for recovery. The effect of GLP-2(3-33) on GLP-2 agonist analogues were conducted by pre-incubating colon segments with 1 or 10 uM GLP-2(3-33) for 5-10 minutes. Then agonist responses were measured at various concentrations as described above.
# Tension was measured by changes in peak height. Data were calculated and expressed as percentage response relative to the basal level (prior to the experiment). Graphs and IC50 determinations were plotted by the percentage response in GraphPad Prism (v 3.02). In order to assess the significance of the effect of GLP-2 and Teduglutide paired t-tests were conducted on the Log [IC50] values.
compound,measurement,setting,value
CC[C@H](C)[C@H](NC(=O)[C@H](Cc1ccccc1)NC(=O)[C@H](CC(=O)O)NC(=O)[C@H](CCCNC(=N)N)NC(=O)[C@H](C)NC(=O)[C@H](C)NC(=O)[C@H](CC(C)C)NC(=O)[C@H](CC(N)=O)NC(=O)[C@H](CC(=O)O)NC(=O)[C@H](CC(C)C)NC(=O)[C@@H](NC(=O)[C@@H](NC(=O)[C@H](CC(N)=O)NC(=O)[C@H](CCSC)NC(=O)[C@H](CCC(=O)O)NC(=O)[C@H](CC(=O)O)NC(=O)[C@H](CO)NC(=O)[C@H](Cc1ccccc1)NC(=O)[C@H](CO)NC(=O)CNC(=O)[C@H](CC(=O)O)NC(=O)[C@H](C)NC(=O)[C@@H](N)Cc1c[nH]cn1)[C@@H](C)O)[C@@H](C)CC)C(=O)N[C@@H](CC(N)=O)C(=O)N[C@@H](Cc1c[nH]c2ccccc12)C(=O)N[C@@H](CC(C)C)C(=O)N[C@H](C(=O)N[C@@H](CCC(N)=O)C(=O)N[C@H](C(=O)N[C@@H](CCCCN)C(=O)N[C@H](C(=O)N[C@H](C(=O)N[C@@H](CC(=O)O)C(=O)O)[C@@H](C)O)[C@@H](C)CC)[C@@H](C)O)[C@@H](C)CC [GLP-2(1-33)],effect on spontaneous colon contractility,rat colon,inhibits spontaneous colon contractility in a concentration-dependent manner
"GLP-2(3-33) (DGSFSDEMNTILDNLAARDFINWLIQTKITD; Glucagon-like peptide 2; UniProt P01275 148-178, looked up, fragment) [a GLP-2 antagonist/partial agonist]",effect on GLP-2(1-33)-induced inhibition of colon contractility,"rat colon, 1 μM and 10 μM test substance, agonist GLP-2(1-33)",blocked GLP-2(1-33)-induced inhibition of colon contractility; also recorded: blocked the inhibitory effects; also recorded: blocks the effect of GLP-2(1-33) in a concentration-dependent manner
same,effect on teduglutide-induced inhibition of rat colon contractility,"rat colon, 1 μM and 10 μM test substance, agonist teduglutide",blocked teduglutide-induced inhibition of colon contractility; also recorded: blocked the inhibitory effects
same,effect on spontaneous colon contractility,rat colon,no effect alone
"CC[C@H](C)[C@H](NC(=O)[C@H](Cc1ccccc1)NC(=O)[C@H](CC(=O)O)NC(=O)[C@H](CCCNC(=N)N)NC(=O)[C@H](C)NC(=O)[C@H](C)NC(=O)[C@H](CC(C)C)NC(=O)[C@H](CC(N)=O)NC(=O)[C@H](CC(=O)O)NC(=O)[C@H](CC(C)C)NC(=O)[C@@H](NC(=O)[C@@H](NC(=O)[C@H](CC(N)=O)NC(=O)[C@H](CCSC)NC(=O)[C@H](CCC(=O)O)NC(=O)[C@H](CC(=O)O)NC(=O)[C@H](CO)NC(=O)[C@H](Cc1ccccc1)NC(=O)[C@H](CO)NC(=O)CNC(=O)[C@H](CC(=O)O)NC(=O)CNC(=O)[C@@H](N)Cc1c[nH]cn1)[C@@H](C)O)[C@@H](C)CC)C(=O)N[C@@H](CC(N)=O)C(=O)N[C@@H](Cc1c[nH]c2ccccc12)C(=O)N[C@@H](CC(C)C)C(=O)N[C@H](C(=O)N[C@@H](CCC(N)=O)C(=O)N[C@H](C(=O)N[C@@H](CCCCN)C(=O)N[C@H](C(=O)N[C@H](C(=O)N[C@@H](CC(=O)O)C(=O)O)[C@@H](C)O)[C@@H](C)CC)[C@@H](C)O)[C@@H](C)CC [Teduglutide, [gly2]GLP-2]",IC50,"agonist alone, read-out: estimated IC50, inhibition of colon contractility",0.0049 ± 0.0019 µM
same,IC50,"pre-incubated with 1 μM GLP-2(3-33), read-out: estimated IC50, inhibition of colon contractility in the presence of GLP-2(3-33)",0.0347 ± 0.0151 µM
same,IC50,"pre-incubated with 10 μM GLP-2(3-33), read-out: estimated IC50, inhibition of colon contractility in the presence of GLP-2(3-33)",0.0599 ± 0.0119 µM
same,effect on spontaneous colon contractility,rat colon,inhibited spontaneous colon contractility in a concentration-dependent manner
